Measured values from patent US20220323455A1, “FUSED HETEROCYCLIC DERIVATIVES AS ANTIVIRAL AGENTS” (priority 2019, published 2022).

tested on: HBV; test: HBV replication inhibition assay (BDNA assay) in HepG2.2.15 cells; assay type: cell-based, Hepatitis B virus; settings: 6 days, encapsidated HBV DNA in supernatant
In short: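 HepG2.2.15 cells were dosed with serially diluted compound (0.5% DMSO), with compound and medium renewed at day 3. Day-6 supernatants were DNase-treated and proteinase K-lysed, and encapsidated HBV DNA was quantified by branched-DNA assay. Percent inhibition was set against DMSO controls and EC50 obtained by nonlinear fit.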

| Structure (SMILES) | EC50 [nM] |
| --- | --- |
| COC(=O)NCC1CCC(F)(F)c2c3c(nn2C1)C[C@@H](C)N(C(=O)Nc1ccnc(C(F)F)c1F)C3 (single isomer, unassigned) [Example 107, Methyl (((3R,8R*)-2-((2-(difluoromethyl)-3-fluoropyridin-4-yl)carbamoyl)-11,11-difluoro-3-methyl-2,3,4,7,8,9,10,11-octahydro-1H-pyrido[4′,3′:3,4]pyrazolo[1,5-a]azepin-8-yl)methyl)carbamate] | 8 |
| COC(=O)NCC1CCC(F)(F)c2c3c(nn2C1)C[C@@H](C)N(C(=O)Nc1ccc(F)c(C#N)c1)C3 (single isomer, unassigned) [Example 108, Methyl (((3R,8S*)-2-((3-cyano-4-fluorophenyl)carbamoyl)-11,11-difluoro-3-methyl-2,3,4,7,8,9,10,11-octahydro-1H-pyrido[4′,3′:3,4]pyrazolo[1,5-a]azepin-8-yl)methyl)carbamate] | 12 |
| COC(=O)NCC1CCC(F)(F)c2c3c(nn2C1)C[C@@H](C)N(C(=O)Nc1ccnc(Br)c1F)C3 (single isomer, unassigned) [Example 109, Methyl (((3R,8S*)-2-((2-bromo-3-fluoropyridin-4-yl)carbamoyl)-11,11-difluoro-3-methyl-2,3,4,7,8,9,10,11-octahydro-1H-pyrido[4′,3′:3,4]pyrazolo[1,5-a]azepin-8-yl)methyl)carbamate] | 32 |
| COC(=O)NCC1CCC(F)(F)c2c3c(nn2C1)C[C@@H](C)N(C(=O)Nc1ccnc(C(F)F)c1F)C3 (single isomer, unassigned) [Example 110, Methyl (((3R,8S*)-2-((2-(difluoromethyl)-3-fluoropyridin-4-yl)carbamoyl)-11,11-difluoro-3-methyl-2,3,4,7,8,9,10,11-octahydro-1H-pyrido[4′,3′:3,4]pyrazolo[1,5-a]azepin-8-yl)methyl)carbamate] | 18 |
| C[C@@H]1Cc2nn3c(c2CN1C(=O)Nc1ccc(F)c(C#N)c1)C(F)(F)CCC(F)(CO)C3 (single isomer, unassigned) [Example 111, (3R,8S*)—N-(3-Cyano-4-fluorophenyl)-8,11,11-trifluoro-8-(hydroxymethyl)-3-methyl-3,4,8,9,10,11-hexahydro-1H-pyrido[4′,3′:3,4]pyrazolo[1,5-a]azepine-2(7H)-carboxamide] | 7 |
| C[C@@H]1Cc2nn3c(c2CN1C(=O)Nc1ccnc(Br)c1F)C(F)(F)CCC(F)(CO)C3 (single isomer, unassigned) [Example 112, (3R,8S*)—N-(2-Bromo-3-fluoropyridin-4-yl)-8,11,11-trifluoro-8-(hydroxymethyl)-3-methyl-3,4,8,9,10,11-hexahydro-1H-pyrido[4′,3′:3,4]pyrazolo[1,5-a]azepine-2(7H)-carboxamide] | 45 |
| C[C@@H]1Cc2nn3c(c2CN1C(=O)Nc1ccnc(C(F)F)c1F)C(F)(F)CCC(F)(CO)C3 (single isomer, unassigned) [Example 113, (3R,8S*)—N-(2-(Difluoromethyl)-3-fluoropyridin-4-yl)-8,11,11-trifluoro-8-(hydroxymethyl)-3-methyl-3,4,8,9,10,11-hexahydro-1H-pyrido[4′,3′:3,4]pyrazolo[1,5-a]azepine-2(7H)-carboxamide] | 154 |
| C[C@@H]1Cc2nn3c(c2CN1C(=O)Nc1ccc(F)c(C#N)c1)C(F)(F)CCC(F)(CO)C3 (single isomer, unassigned) [Example 114, (3R,8R*)—N-(3-Cyano-4-fluorophenyl)-8,11,11-trifluoro-8-(hydroxylmethyl)-3-methyl-3,4,8,9,10,11-hexahydro-1H-pyrido[4′,3′:3,4]pyrazolo[1,5-a]azepine-2(7H)-carboxamide] | 1 |
| C[C@@H]1Cc2nn3c(c2CN1C(=O)Nc1ccnc(Br)c1F)C(F)(F)CCC(F)(CO)C3 (single isomer, unassigned) [Example 115, (3R,8R*)—N-(2-Bromo-3-fluoropyridin-4-yl)-8,11,11-trifluoro-8-(hydroxylmethyl)-3-methyl-3,4,8,9,10,11-hexahydro-1H-pyrido[4′,3′:3,4]pyrazolo[1,5-a]azepine-2(7H)-carboxamide] | 5 |
| C[C@@H]1Cc2nn3c(c2CN1C(=O)Nc1ccnc(C(F)F)c1F)C(F)(F)CCC(F)(CO)C3 (single isomer, unassigned) [Example 116, (3R,8R*)—N-(2-(Difluoromethyl)-3-fluoropyridin-4-yl)-8,11,11-trifluoro-8-(hydroxymethyl)-3-methyl-3,4,8,9,10,11-hexahydro-1H-pyrido[4′,3′:3,4]pyrazolo[1,5-a]azepine-2(7H)-carboxamide] | 10 |
| C[C@@H]1Cc2nn3c(c2CN1C(=O)Nc1ccnc(Br)c1F)C(F)(F)CC(O)CC3 (single isomer, unassigned) [Example 117, (3R,9S*)—N-(2-Bromo-3-fluoropyridin-4-yl)-11,11-difluoro-9-hydroxyl-3-methyl-3,4,8,9,10,11-hexahydro-1H-pyrido[4′,3′:3,4]pyrazolo[1,5-a]azepine-2(7H)-carboxamide] | 18 |
| C[C@@H]1Cc2nn3c(c2CN1C(=O)Nc1ccnc(Br)c1F)C(F)(F)CC(O)CC3 (single isomer, unassigned) [Example 118, (3R,9R*)—N-(2-Bromo-3-fluoropyridin-4-yl)-11,11-difluoro-9-hydroxyl-3-methyl-3,4,8,9,10,11-hexahydro-1H-pyrido[4′,3′:3,4]pyrazolo[1,5-a]azepine-2(7H)-carboxamide] | 3 |
| C[C@@H]1Cc2nn3c(c2CN1C(=O)Nc1ccnc(C(F)F)c1F)C(F)(F)CC(O)CC3 (single isomer, unassigned) [Example 121, (3R,9S*)—N-(2-(Difluoromethyl)-3-fluoropyridin-4-yl)-11,11-difluoro-9-hydroxy-3-methyl-3,4,8,9,10,11-hexahydro-1H-pyrido[4′,3′:3,4]pyrazolo[1,5-a]azepine-2(7H)-carboxamide] | 8 |
| C[C@@H]1Cc2nn3c(c2CN1C(=O)Nc1ccnc(C(F)F)c1F)C(F)(F)CC(O)CC3 (single isomer, unassigned) [Example 122, (3R,9R*)—N-(2-(Difluoromethyl)-3-fluoropyridin-4-yl)-11,11-difluoro-9-hydroxy-3-methyl-3,4,8,9,10,11-hexahydro-1H-pyrido[4′,3′:3,4]pyrazolo[1,5-a]azepine-2(7H)-carboxamide] | 2 |
| C[C@@H]1Cc2nn3c(c2CN1C(=O)Nc1ccnc(Br)c1F)C(F)=CC(O)CC3 (single isomer, unassigned) [Example 124, (3R,9S*)—N-(2-Bromo-3-fluoropyridin-4-yl)-11-fluoro-9-hydroxy-3-methyl-3,4,8,9-tetrahydro-1H-pyrido[4′,3:3,4]pyrazolo[1,5-a]azepine-2(7H)-carboxamide] | 26 |
| C[C@@H]1Cc2nn3c(c2CN1C(=O)Nc1ccc(F)c(C#N)c1)C(F)(F)CC(O)(CO)CC3 (single isomer, unassigned) [Example 125, (3R,9R*)—N-(3-Cyano-4-fluorophenyl)-11,11-difluoro-9-hydroxy-9-(hydroxymethyl)-3-methyl-3,4,8,9,10,11-hexahydro-1H-pyrido[4′,3′:3,4]pyrazolo[1,5-a]azepine-2(7H)-carboxamide] | 14 |
